Measurements as given in patent US20260364030A1, “NOVEL SELECTIVE INHIBITORS OF LYSYL OXIDASES” (Syntara Limited, priority 2022, published 2026).

Experiments:
[1] = system: massive, pedunculated keloids; conditions: BAPN or penicillamine, and colchicine; following excision of keloid and grafting; cited from earlier work
desmoplastic tumour = conditions: mouse, in vivo; cited from earlier work
lysyl oxidase = conditions: various models (e.g. CCl4, bleomycin, quartz, cancer) and tissues (e.g. liver, lung and dermis); cited from earlier work
Human MAO-A = target: T1, Human MAO-A (Homo sapiens, UniProt P21397); assay: Inhibition of human recombinant MAO-A; assay type: biochemical; conditions: 2 hours incubation; substrate tyramine 200 μM
T1 construct: purchased Sigma Aldrich
T1 sequence (P21397 whole entry): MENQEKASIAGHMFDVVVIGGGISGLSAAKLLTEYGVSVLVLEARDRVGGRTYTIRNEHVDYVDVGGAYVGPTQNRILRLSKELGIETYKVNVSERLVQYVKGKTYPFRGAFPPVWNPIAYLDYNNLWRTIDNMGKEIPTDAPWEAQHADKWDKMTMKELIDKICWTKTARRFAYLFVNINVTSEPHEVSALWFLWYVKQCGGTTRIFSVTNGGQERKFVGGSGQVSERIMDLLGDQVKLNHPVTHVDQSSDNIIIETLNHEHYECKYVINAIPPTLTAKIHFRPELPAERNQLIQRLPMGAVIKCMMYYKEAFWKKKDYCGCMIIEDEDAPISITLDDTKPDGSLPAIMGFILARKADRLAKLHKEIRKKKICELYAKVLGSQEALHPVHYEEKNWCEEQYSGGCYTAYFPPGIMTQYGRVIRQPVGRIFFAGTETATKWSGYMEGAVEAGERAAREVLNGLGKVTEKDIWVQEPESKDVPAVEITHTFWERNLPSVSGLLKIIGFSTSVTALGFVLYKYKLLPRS

LOXL2 = target: T2, LOXL2 (Homo sapiens, UniProt Q9Y4K0); assay: Time-dependent inhibition of LOXL2, Amplex Red oxidation assay; assay type: biochemical; conditions: for IC50: 37 °C
T2 sequence (Q9Y4K0 26-774): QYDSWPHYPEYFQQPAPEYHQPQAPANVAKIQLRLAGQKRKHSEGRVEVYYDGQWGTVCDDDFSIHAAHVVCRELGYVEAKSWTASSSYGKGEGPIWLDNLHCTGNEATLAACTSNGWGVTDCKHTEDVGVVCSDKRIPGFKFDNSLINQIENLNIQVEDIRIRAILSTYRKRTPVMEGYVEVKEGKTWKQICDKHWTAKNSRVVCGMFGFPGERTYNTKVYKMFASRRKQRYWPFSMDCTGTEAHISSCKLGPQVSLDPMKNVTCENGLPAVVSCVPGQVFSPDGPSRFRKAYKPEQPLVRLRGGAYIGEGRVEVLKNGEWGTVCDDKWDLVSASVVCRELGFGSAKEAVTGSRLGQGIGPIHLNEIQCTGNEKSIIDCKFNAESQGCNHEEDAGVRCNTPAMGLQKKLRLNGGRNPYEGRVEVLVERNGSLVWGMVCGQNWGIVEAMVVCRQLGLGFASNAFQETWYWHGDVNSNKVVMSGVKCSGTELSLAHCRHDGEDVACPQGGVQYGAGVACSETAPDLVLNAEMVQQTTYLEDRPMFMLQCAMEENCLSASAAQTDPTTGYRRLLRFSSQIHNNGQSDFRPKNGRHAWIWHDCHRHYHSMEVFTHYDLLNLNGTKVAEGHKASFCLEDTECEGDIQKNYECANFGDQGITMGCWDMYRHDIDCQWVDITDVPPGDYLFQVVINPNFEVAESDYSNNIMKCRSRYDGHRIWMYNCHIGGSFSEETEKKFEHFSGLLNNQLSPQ
Experimental: The time dependent inhibitory effects of the Compound 1 of the present invention were tested against the given LOXL1 preparation and LOXL2 preparation using a method based on the detection of hydrogen peroxide with an Amplex Red oxidation assay [Zhou et al. 1997]. The assay was developed for use in either 384 or 96 well format. Briefly, in a standard black, clear bottom 384 well plate assay 25 µL of a dilution of any of the isoenzymes and orthologues in 1.2 M urea, 50 mM sodium borate buffer (pH 8.2) were added into each well in the presence of […] and 0.5 mM pargyline (to inhibit SSAO and MAO-B and MAO-A, respectively; not necessary if the enzyme is from a recombinant or purified form). Test compound (Compound 1) was dissolved in DMSO and tested in a Concentration Response Curve (CRC) with 11 data points, typically in the micromolar or nanomolar range after incubation with the enzyme for different time points at 37 °C. 25 μL of a reaction mixture containing twice the KM concentration of putrescine (Sigma Aldrich, e.g. 20 mM for LOXL1 or 10 mM for LOXL2), 120 µM Amplex Red (Thermo Fisher Scientific) and 1.5 U/mL horseradish peroxidase (Sigma Aldrich) prepared in 1.2 M urea, 50 mM sodium borate buffer (pH 8.2) were then added to the corresponding wells. The fluorescence (RFU) was read every 2.5 min for 30 min at 37 °C, excitation 544 nm and emission 590 nm (Optima; BMG labtech). The slope/min of the kinetics for each well was calculated using MARS data analysis software (BMG labtech) and this value was used to deduce the IC50 value (Dotmatics).

collagen cross-links = assay: Rodent injury model (full-thickness skin excision); assay type: in vivo, mice
Experimental: Mice received injury by excision of full-thickness skin (3 cm^2 on the flank of the mice). In the treatment groups, 4% Compound 1 solution was applied topically, once a day, starting from 24 hours post injury to 1 week post injury. Wounds were then left to heal for an additional week. Mice were euthanized at 4-6 weeks post injury and the tissue was analyzed for collagen content, hydroxyproline as a surrogate marker of collagen content, extracted cross-link biomarkers: HLNL, DHLNL (reduced forms of deH-HLNL and deH-DHLNL respectively), PYD and DPD, elastin content, and changes in gross morphology and histology (using polarised light microscopy, immunohistochemistry, standard staining markers and LCMSMS).

[2] = system: TA98, TA100, TA1535 and TA1537 strains of Salmonella typhimurium and WP2uvrA (pKM101) strain of Escherichia coli; assay: Bacterial Reverse Mutation Test, initial and confirmatory mutation assay
Experimental: The test item Compound 1 was tested for its mutagenic potential in the bacterial reverse mutation assay. The study was conducted using TA98, TA100, TA1535 and TA1537 strains of Salmonella typhimurium and WP2uvrA (pKM101) strain of Escherichia coli in three phases; a preliminary toxicity test, an initial mutation assay and a confirmatory mutation assay. The bacterial tester strains were exposed to the test item in the presence and absence of metabolic activation system (S9 fraction prepared from Aroclor 1254 induced rat liver).
The bacterial tester strains were exposed to the test item in triplicate at 50, 158, 500, 1581 and 5000 μg/plate. The initial mutation assay was conducted using the direct plate incorporation mode of exposure whereas the confirmatory mutation assay was carried out using the pre-incubation mode of exposure. The vehicle control (DMSO) and the appropriate positive controls were tested simultaneously. The mean and standard deviation of numbers of revertant colonies were calculated for each test dose and the controls for all the tester strains.

skin fibrosis = assay: Mouse model of sclerosis (bleomycin-induced skin fibrosis); assay type: in vivo, male C57BL/6 mouse; conditions: topical formulation, various concentrations, from day 3; histology after 21 days; FIG. 3, ****=P≤0.0001
Experimental: Subcutaneous bleomycin (0.1 U/kg) was administered every second day (for 21 days total) to male C57BL/6 to induce skin fibrosis as a model of sclerosis. The lesions were treated, from day 3, with either Vehicle or various concentrations of Compound 1 in a topical formulation. Histology was completed after 21 days.

[3] = 4% solution topically once a day, 24 hours to 1 week post injury, vs control (FIG. 4, *=P≤0.05)

SMILES	Effect on surface scarring [1]	Metastatic load and survival (desmoplastic tumour)	Reduction of collagen content (lysyl oxidase)	IC50 (Human MAO-A) [nM]	IC50 (LOXL2; 0′ incubation) [nM]	IC50 (LOXL2; 15′ incubation) [nM]	IC50 (LOXL2; 30′ incubation) [nM]	IC50 (LOXL2; 1 h incubation) [nM]	IC50 (LOXL2; 2 h incubation) [nM]	IC50 (LOXL2; 4 h incubation) [nM]	Time dependent LOXL2 inhibition (LOXL2; apparent potency increasing with time)	Immature crosslinks (LCMS, normalized for protein content) (collagen cross-links; [3])	Mature crosslinks (LCMS, normalized for protein content) (collagen cross-links; [3])	Collagen cross-links (collagen cross-links; rodent injury model, FIG. 4 (*=P≤0.05))	Mutagenic increase in revertant colonies ([2]; 50-5000 μg/plate, with and without metabolic activation (S9), initial and confirmatory assay, all tester strains)	Mutagenicity ([2]; up to the top dose 5000 μg/plate)	Average collagen score (histology) (skin fibrosis)
N#CCCN [BAPN, β-aminopropionitrile, reference compound]	measurable beneficial effect on surface scarring	lower metastatic load and increased survival	efficacious in reducing collagen content	–	–	–	–	–	–	–	–	–	–	–	–	–	–
NC/C(=C\F)CS(=O)(=O)c1ccccc1 [Compound 1, (E)-3-fluoro-2-((phenylsulfonyl)methyl)prop-2-en-1-amine]	–	–	–	> 100000	14700	5580	1710	890	410	310	time dependent LOXL1 and LOXL2 inhibition	reduced	reduced	reduction in collagen cross-links	did not show any positive mutagenic increase	not mutagenic	significant improvement in the average collagen score
